Measured values as given in patent US11993640B2, “Treating inflammatory lung disease” (United States Government as represented by the Department …, priority 2019, dated 2024).
Non-standard residues stand in square brackets, D forms with d. Residues, ends and D or L forms follow the SMILES beside them. *: point of attachment. Phenylacetyl(2,3,4,5,6-F5) = O=C(Cc1c(F)c(F)c(F)c(F)c1F)*; Phe(4-Cl) = N[C@@H](Cc1ccc(Cl)cc1)C(=O)O; hArg = N=C(N)NCCCC[C@H](N)C(=O)O; 12Ado = NCCCCCCCCCCCC(=O)O; Nle = CCCC[C@H](N)C(=O)O; Orn = NCCC[C@H](N)C(=O)O; Abu = CC[C@H](N)C(=O)O; PhAc = O=C(Cc1ccccc1)*; Aoc = NCCCCCCCC(=O)O

Experiments:
Assay type in all cases: cell-based, human
Conditions in all cases: 5 μM, 72 h; relative to MIA602 = 1; Table 3A
KATOIII cells = assay: In vitro cell viability, stomach cancer KATOIII
Description: (§1) The inhibitory effects of the various synthesized GHRH antagonists were tested in cell proliferation assays in various human cancer cell lines including stomach cancer (KATOIII, N87), colon cancer (HT-29), urothelial cancer (J82, RT4), pancreatic cancer (PANC-1, CFPAC-1), prostatic cancer (PC3), breast cancer (MX-1, HCC1806), ovarian cancer (SK-OV-3, OVCAR-3) and lung cancer (HCC827, H460).
(§2) Cell culture. Human cancer cell lines including pancreatic (PANC-1 and CFPAC-1), lung (HCC827 and H460), stomach (NCI-N87 and KATOIII), urothelial (J82, RT4), prostatic (PC3), breast (MX-1 and HCC 1806), colorectal (HT-29), and ovarian (SK-OV-3 and OVCAR-3) were obtained from the American Type Culture Collection (ATCC) and cultured at 37° C. in a humidified 95% air/5% CO2 atmosphere in the medium recommended by ATCC.
(§3) In vitro cell viability. Cell viability was analyzed as follows: cancer cells including pancreatic (PANC-1 and CFPAC-1), lung (HCC827 and H460), stomach (NCI-N87 and KATOIII), urothelial (J82, RT4), prostatic (PC3) and breast (MX-1 and HCC 1806), colorectal (HT-29) and ovarian (SK-OV-3 and OVCAR-3) were grown on 96 well plates to ˜60% confluence, the cells were starved for 24 h in culture medium containing 0.5% FBS. Cells were then treated with GHRH antagonists MIA602 AVR compounds at concentrations of 1, 2.5 or 5 μM, or vehicle (0.1% DMSO) in quintuplicates for 72 hours. The medium was replaced every 48 hours. Cell viability was measured using CellTiter 96 aqueous one solution kit (Promega). Inhibitory effects of tested AVR compounds in comparison to that of MIA602 are presented as inhibitory potency.
(§4) Inhibitory effects of selected AVR compounds in comparison to that of MIA602 are presented as inhibitory potency (e.g., percentage of inhibition). […] The cell lines tested including lung cancer HCC827 (FIG. 2A), pancreatic cancer CFPAC-1 (FIG. 2B), stomach cancer N87 (FIG. 2C), colon cancer HT-29 (FIG. 2D), breast cancers MX-1 and HCC1806 (FIGS. 2E, F). Based on the results of cell proliferation assay after cancer cells were treated with antagonist at concentration of 5 μM for 72H, the relative inhibitory potency of AVR antagonists in comparison to MIA-602 is summarized in Table 3 A and B. Over 60 AVR compounds were tested in 12 cancer cell lines.

CFPAC-1 cells = assay: In vitro cell viability, pancreatic cancer CFPAC-1
Description: as §1, §2, §3, §4
(§5) Based on the results of cell proliferation assay after cancer cells were treated with antagonist at concentration of 5 µM for 72H, * at concentration of 2 µM for 72 H.

HCC827 cells = assay: In vitro cell viability, lung cancer HCC827
Description: as §1, §2, §3, §4, §5

Row | SMILES | Relative inhibitory potency, Stomach KATOIII (KATOIII cells) | Relative inhibitory potency, Pancreatic CFPAC-1 (CFPAC-1 cells) | Relative inhibitory potency, Lung HCC827 (HCC827 cells)
1 | CCCC[C@H](NC(=O)[C@@H](NC(=O)[C@H](CC(=O)O)NC(=O)[C@H](CCC(N)=O)NC(=O)[C@H](CC(C)C)NC(=O)[C@H](CC(C)C)NC(=O)[C@H](CCCCN)NC(=O)[C@H](CCCNC(=N)N)NC(=O)[C@H](C)NC(=O)[C@H](CO)NC(=O)[C@H](CC(C)C)NC(=O)[C@H](CCC(N)=O)NC(=O)[C@H](CC)NC(=O)[C@H](CC(C)C)NC(=O)[C@@H](NC(=O)[C@H](CCCCN)NC(=O)[C@H](CCCNC(=N)N)NC(=O)[C@H](Cc1ccc(OC)cc1)NC(=O)[C@H](CCCNC(=N)N)NC(=O)[C@H](CC(N)=O)NC(=O)[C@@H](NC(=O)[C@H](Cc1ccc(Cl)cc1)NC(=O)[C@@H](NC(=O)[C@H](C)NC(=O)[C@H](CC(=O)O)NC(=O)[C@@H](CCCNC(=N)N)NC(=O)[C@H](Cc1ccc(O)cc1)NC(=O)CCCCCCCCCCCNC(=O)Cc1ccccc1)[C@@H](C)CC)[C@@H](C)O)C(C)C)[C@@H](C)CC)C(=O)N[C@H](CCCNC(=N)N)C(=O)N[C@@H](CCCCNC(=N)N)C(=O)NC [AVR-234, PhAC-Ada-Tyr-DArg-Asp-Ala-Ile-Cpa-Thr-Asn-Arg-Tyr(Me)-Arg-Lys-Val-Leu-Abu-Gln-Leu-Ser-Ala-Arg-Lys-Leu-Leu-Gln-Asp-Ile-Nle-DArg-Har-NHCH3] ({PhAc-12Ado}-Y[dR]DAI[Phe(4-Cl)]TNRY(Me)RKVL[Abu]QLSARKLLQDI[Nle][dR][hArg]-NHMe) | 1.709 | 2.205 | 4.510
2 | CCCC[C@H](NC(=O)[C@@H](NC(=O)[C@H](CC(=O)O)NC(=O)[C@H](CCC(N)=O)NC(=O)[C@H](CC(C)C)NC(=O)[C@H](CC(C)C)NC(=O)[C@H](CCCCN)NC(=O)[C@H](CCCNC(=N)N)NC(=O)[C@H](C)NC(=O)[C@H](CO)NC(=O)[C@H](CC(C)C)NC(=O)[C@H](CCC(N)=O)NC(=O)[C@H](CC)NC(=O)[C@H](CC(C)C)NC(=O)[C@@H](NC(=O)[C@H](CCCCN)NC(=O)[C@H](CCCNC(=N)N)NC(=O)[C@H](Cc1ccc(OC)cc1)NC(=O)[C@H](CCCCNC(=N)N)NC(=O)[C@H](CC(N)=O)NC(=O)[C@@H](NC(=O)[C@H](Cc1ccc(Cl)cc1)NC(=O)[C@@H](NC(=O)[C@H](C)NC(=O)[C@H](CC(=O)O)NC(=O)[C@@H](CCCNC(=N)N)NC(=O)[C@H](Cc1ccc(O)cc1)NC(=O)CCCCCCCCCCCNC(=O)Cc1ccccc1)[C@@H](C)CC)[C@@H](C)O)C(C)C)[C@@H](C)CC)C(=O)N[C@H](CCCNC(=N)N)C(=O)N[C@@H](CCCCNC(=N)N)C(=O)NCCCCCCCC(=O)NC [AVR-321, PhAC-Ada-Tyr-DArg-Asp-Ala-Ile-Cpa-Thr-Asn-Har-Tyr(Me)-Arg-Lys-Val-Leu-Abu-Gln-Leu-Ser-Ala-Arg-Lys-Leu-Leu-Gln-Asp-Ile-Nle-DArg-Har-Aoc-NHCH3] ({PhAc-12Ado}-Y[dR]DAI[Phe(4-Cl)]TN[hArg]Y(Me)RKVL[Abu]QLSARKLLQDI[Nle][dR][hArg][Aoc]-NHMe) | 1.414 |  | 
3 | CCCC[C@H](NC(=O)[C@@H](NC(=O)[C@H](CC(=O)O)NC(=O)[C@H](CCC(N)=O)NC(=O)[C@H](CC(C)C)NC(=O)[C@H](CC(C)C)NC(=O)[C@H](CCCCN)NC(=O)[C@H](CCCNC(=N)N)NC(=O)[C@H](C)NC(=O)[C@H](CO)NC(=O)[C@H](CC(C)C)NC(=O)[C@H](CCC(N)=O)NC(=O)[C@H](CC)NC(=O)[C@H](CC(C)C)NC(=O)[C@@H](NC(=O)[C@H](CCCCN)NC(=O)[C@H](CCCNC(=N)N)NC(=O)[C@H](Cc1ccc(OC)cc1)NC(=O)[C@H](CCCCNC(=N)N)NC(=O)[C@H](CC(N)=O)NC(=O)[C@@H](NC(=O)[C@H](Cc1ccc(Cl)cc1)NC(=O)[C@@H](NC(=O)[C@H](C)NC(=O)[C@H](CC(=O)O)NC(=O)[C@@H](CCCNC(=N)N)NC(=O)[C@H](Cc1ccc(O)cc1)NC(=O)CCCCCCCCCCCNC(=O)Cc1c(F)c(F)c(F)c(F)c1F)[C@@H](C)CC)[C@@H](C)O)C(C)C)[C@@H](C)CC)C(=O)N[C@H](CCCNC(=N)N)C(=O)N[C@@H](CCCCNC(=N)N)C(=O)NCCCCCCCC(=O)NC [AVR-322, 5FPhAC-Ada-Tyr-DArg-Asp-Ala-Ile-Cpa-Thr-Asn-Har-Tyr(Me)-Arg-Lys-Val-Leu-Abu-Gln-Leu-Ser-Ala-Arg-Lys-Leu-Leu-Gln-Asp-Ile-Nle-DArg-Har-Aoc-NHCH3] ({Phenylacetyl(2,3,4,5,6-F5)-12Ado}-Y[dR]DAI[Phe(4-Cl)]TN[hArg]Y(Me)RKVL[Abu]QLSARKLLQDI[Nle][dR][hArg][Aoc]-NHMe) | 1.296 |  | 
4 | CCCC[C@H](NC(=O)[C@@H](NC(=O)[C@H](CC(=O)O)NC(=O)[C@H](CCC(N)=O)NC(=O)[C@H](CC(C)C)NC(=O)[C@H](CC(C)C)NC(=O)[C@H](CCCCN)NC(=O)[C@H](CCCNC(=N)N)NC(=O)[C@H](C)NC(=O)[C@H](CO)NC(=O)[C@H](CC(C)C)NC(=O)[C@H](CCC(N)=O)NC(=O)[C@H](CC)NC(=O)[C@H](CC(C)C)NC(=O)[C@@H](NC(=O)[C@H](CCCCN)NC(=O)[C@H](CCCNC(=N)N)NC(=O)[C@H](Cc1ccc(OC)cc1)NC(=O)[C@H](CCCCNC(=N)N)NC(=O)[C@H](CC(N)=O)NC(=O)[C@@H](NC(=O)[C@H](Cc1ccc(Cl)cc1)NC(=O)[C@@H](NC(=O)[C@H](C)NC(=O)[C@H](CC(=O)O)NC(=O)[C@@H](CCCNC(=N)N)NC(=O)[C@H](Cc1ccc(O)cc1)NC(=O)CCCCCCCCCCCNC(=O)Cc1ccccc1)[C@@H](C)CC)[C@@H](C)O)C(C)C)[C@@H](C)CC)C(=O)N[C@H](CCCNC(=N)N)C(=O)N[C@@H](CCCCNC(=N)N)C(=O)NCCCCCCCCCCCC(N)=O [AVR-332] ({PhAc-12Ado}-Y[dR]DAI[Phe(4-Cl)]TN[hArg]Y(Me)RKVL[Abu]QLSARKLLQDI[Nle][dR][hArg][12Ado]-NH2) | 1.643 |  | 
5 | CCCC[C@H](NC(=O)[C@@H](NC(=O)[C@H](CC(=O)O)NC(=O)[C@H](CCC(N)=O)NC(=O)[C@H](CC(C)C)NC(=O)[C@H](CC(C)C)NC(=O)[C@H](CCCN)NC(=O)[C@H](Cc1c[nH]cn1)NC(=O)[C@H](C)NC(=O)[C@H](CO)NC(=O)[C@H](CC(C)C)NC(=O)[C@H](CCC(N)=O)NC(=O)[C@H](CC)NC(=O)[C@H](CC(C)C)NC(=O)[C@@H](NC(=O)[C@H](CCCCN)NC(=O)[C@H](CCCNC(=N)N)NC(=O)[C@H](Cc1ccc(OC)cc1)NC(=O)[C@H](CCCNC(=N)N)NC(=O)[C@H](CC(N)=O)NC(=O)[C@@H](NC(=O)[C@H](Cc1ccc(Cl)cc1)NC(=O)[C@@H](NC(=O)[C@H](C)NC(=O)[C@H](CC(=O)O)NC(=O)[C@@H](CCCNC(=N)N)NC(=O)[C@H](Cc1ccc(O)cc1)NC(=O)CCCCCCCCCCCNC(=O)Cc1c(F)c(F)c(F)c(F)c1F)[C@@H](C)CC)[C@@H](C)O)C(C)C)[C@@H](C)CC)C(=O)N[C@H](CCCNC(=N)N)C(=O)N[C@@H](CCCCNC(=N)N)C(=O)NCCCCCCCCCCCC(N)=O [AVR-620, 5FPhAC-Ada-Tyr-DArg-Asp-Ala-Ile-Cpa-Thr-Asn-Arg-Tyr(Me)-Arg-Lys-Val-Leu-Abu-Gln-Leu-Ser-Ala-His-Orn-Leu-Leu-Gln-Asp-Ile-Nle-DArg-Har-Ada-NH2] ({Phenylacetyl(2,3,4,5,6-F5)-12Ado}-Y[dR]DAI[Phe(4-Cl)]TNRY(Me)RKVL[Abu]QLSAH[Orn]LLQDI[Nle][dR][hArg][12Ado]-NH2) | 1.769 | 1.567 | 3.753
